# Entries after “also recorded” stand apart in the source; their conditions may differ.
# Assays:
# histone H3 = experiment: Histone H3 acetylation in Kasumi-1 cells (Western blot); format: cell-based, human; details: Lys-CoA-Tat 50 μM, C646 10 or 20 μM for 24 hours
# From the text: (§1) Anti-p300 (Millipore or Santa Cruz), anti-Flag (Sigma), anti-HA (Santa Cruz), anti-ETO (generated in the Roeder lab or Santa Cruz), anti-AML1 (Zhao, X. et al, Genes Dev 22, 640, 2008), anti-acetylated lysine (Stressgen), anti-acetylated Histone H3 (Millipore), anti-Tubulin (Sigma), anti-TAFII250 (generated in the Roeder lab) and anti-TAF7 (generated in the Roeder lab) antibodies were used. Two anti-acetylated AML1-ETO polyclonal antibodies were generated by immunizing rabbits with the synthetic peptides (TALSPGK [acetylated] MSEA SEQ ID NO: 10 or LAGK [acetylated] LRSGDRS SEQ ID NO: 11) conjugated to KLH. The polyclonal antiserum was collected and purified using a peptide affinity column. The affinity of the antibodies against acetyl-lysine AML1-ETO was measured by dot blot assays. For the dot blot assays, 5 pmol of peptide (measured by Ellman's reagent) was spotted onto a nitrocellulose membrane. The control peptides were as follows: AML1-ETOK24 peptide (TALSPGKMSEA) (SEQ ID NO: 10) and AML1-ETOK43 peptide (LAGK LRSGDRS) (SEQ ID NO: 11).
# (§2) The Flag-AE, Flag-AE-ΔNHR1 (aa245-436), Flag-AE-ΔNHR2, Flag-ETO, Flag-ETO-ΔNHR1 and Flag-ETO-ΔNHR2 cDNAs were cotransfected into 80% confluent 293T cells using the FuGene 6 reagent. After 36 hours the cells were lysed in RIPA buffer with 1 mM DTT and DNAse I 1 μg/mL and a proteinase inhibitor cocktail (Roche), and incubated on ice for 30 minutes. […]
# MO-91 cells = experiment: MTT growth assay of AML cell lines: MO-91; format: cell-based; details: at 5 μM; MTT assay after 72 hours
# Protocol: (§3) Cells were treated with p300 inhibitors at different concentrations in a 96-well plate. After 72 hours, 0.1 mg MTT was added to each well. The samples were incubated at 37° C. for 4 hours and the absorbance was measured at 570 nm by spectrophotometry.
# U937 cells = experiment: MTT growth assay of AML cell lines: U937; format: cell-based; details: at 5 μM; MTT assay after 72 hours
# Protocol: as §3
# Kasumi-1 cells = experiment: Growth of Kasumi-1 cells; format: cell-based, human; details: Lys-CoA-Tat and DDDD-Tat 50 μM; C646 concentration not stated
# Protocol: (§4) Leukemia cells were obtained from two AML patients with t(8;21) by Ficoll-hypaque separation. Informed consent was obtained from the patients, according to institutional (IRB) guidelines. The cell viabilities of the primary leukemia cells, Kasumi-1 cells, HL60 cells and human CD34^+ cells were assessed by triplicate counting of trypan blue dye-excluding cells under light microscopy. The cell morphology was evaluated by Wright's staining of cells prepared by cytospin centrifugation. Blast cells were isolated from the bone marrow and spleen of the mice with AE9a or MLL-AF9 driven leukemia, and treated for 12 hours with Lys-CoA-Tat or DDDD-Tat (at 50 μM), or C646 vs. C37 (at 20 μM). Female C57Bl/6 mice were sublethally irradiated with 475 cGy, and then injected with 3×10^6 treated blast cells via tail vein.
# as §3
# Id1, p21 and Egr1 mRNA = experiment: qPCR of AML1-ETO activated target genes in Kasumi-1 cells; format: cell-based, human; details: 24 hours, Lys-CoA-Tat 50 μM, C646 20 μM
# Protocol: The RNA extraction and cDNA generation procedures were described above. The reverse transcription reaction was performed for 10 min at 25° C., 50 min at 50° C., 5 min at 85° C. and 20 min at 37° C. Real-time quantitative PCR was performed using a TaqMan 7500 sequence detector system (Applied Biosystems). The thermal cycle conditions were:
# 50° C. for 2 min, 95° C. for 10 min to activate Amplitaq Gold DNA polymerase, denaturation at 95° C. for 15 seconds and anneal/extension at 60° C. for 1 min (45 cycles). Quantitative PCR for HPRT was performed to normalize for cDNA loading. The relative quantification of gene expression was calculated using the method […], as described by the manufacturer.
# HEL cells = experiment: MTT growth assay of AML cell lines: HEL; format: cell-based; details: at 5 μM; MTT assay after 72 hours
# Protocol: as §3
# [1] = tested on: acetylated A-EK43 (AML1-ETO); experiment: A-EK43 acetylation in Kasumi-1 cells (IP / Western blot); format: cell-based, human; details: Lys-CoA-Tat 50 μM, C646 10 or 20 μM for 24 hours
# From the text: as §1, §2
# NB4 cells = experiment: MTT growth assay of AML cell lines: NB4; format: cell-based; details: at 5 μM; MTT assay after 72 hours
# Protocol: as §3
# [2] = tested on: AE9a expressing mouse leukemia cells; experiment: AE9a mouse AML model, leukemia cells treated ex vivo and injected; format: in vivo
# Protocol: as §4
# (§5) Assays were set up in triplicates and the results expressed as the mean±SD. Statistical analyses were performed using Student's t-test. Survival functions were estimated using the Kaplan-Meier method and compared by the log-rank test.
# Mono-Mac-1 cells = experiment: MTT growth assay of AML cell lines: Mono-Mac-1; format: cell-based; details: at 5 μM; MTT assay after 72 hours
# Protocol: as §3
# HL60 cells = experiment: MTT growth assay of AML cell lines: HL60; format: cell-based; details: at 5 μM; MTT assay after 72 hours
# Protocol: as §3
# THP-1 cells = experiment: MTT growth assay of AML cell lines: THP-1; format: cell-based; details: at 5 μM; MTT assay after 72 hours
# Protocol: as §3
# [3] = tested on: MLL-AF9 expressing mouse leukemia cells; experiment: MLL-AF9 mouse leukemia model, leukemia cells treated ex vivo and injected; format: in vivo; details: cells treated ex vivo 12 hours with 50 μM Lys-CoA-Tat/DDDD-Tat or 20 μM C646/C37; sublethally irradiated recipients
# Protocol: as §4, §5
# [4] = AE9a cells treated ex vivo 12 hours, 50 μM Lys-CoA-Tat vs DDDD-Tat or 20 μM C646 vs C37
smiles,measurement,setting,value
CC1=NN(c2ccc(C(=O)O)cc2)C(=O)/C1=C\c1ccc(-c2cc(C)c(C)cc2[N+](=O)[O-])o1 [C646],level of acetylated histone H3,histone H3,decreased the level
same,growth of MO-91 cells,MO-91 cells,inhibited the growth
same,growth of U937 cells,U937 cells,inhibited the growth
same,growth of Kasumi-1 cells,Kasumi-1 cells,as did C646
same,"expression of AML1-ETO activated target genes (Id1, p21 and Egr1 mRNA)","Id1, p21 and Egr1 mRNA",decreased the level; also recorded: downregulated expression
same,growth of HEL cells,HEL cells,inhibited the growth
same,level of acetylated A-EK43,[1],decreased the level; also recorded: decreased acetylation
same,growth of NB4 cells,NB4 cells,inhibited the growth
same,Percent of GFP+ C-Kit+ cells in peripheral blood,[2]; [4],reduced the number; also recorded: significantly less
same,WBC counts,[2]; [4],lower white blood counts; also recorded: significantly lower
same,platelet count (PLT),[2]; [4],less thrombocytopenia; also recorded: higher
same,red blood cell count (RBC),[2]; [4],less anemia; also recorded: higher
same,Median survival of AE9a mice,"[2]; cells treated ex vivo 12 hours with 50 μM Lys-CoA-Tat/DDDD-Tat or 20 μM C646/C37, sublethally irradiated recipients",43 days
same,growth of Mono-Mac-1 cells,Mono-Mac-1 cells,minimal effect
same,growth of HL60 cells,HL60 cells,minimal effect
same,growth of THP-1 cells,THP-1 cells,minimal effect
same,Median survival of MLL-AF9 mice,[3],28 days

# — US9435809B2, “Method of treating and reducing the risk of acute myelogenous leukemia” (Memorial Sloan-Kettering Cancer Center, priority 2011, dated 2016)
